Assay results as given in patent US20090311237A1, “Combination therapy using a soluble hyaluronidase and a bisphosphonate” (priority 2008, published 2009).
Read-outs that look alike come from different tables or passages of the source.

Assay: Pharmacokinetics of ZA in pig serum after IV or SC infusion with or without rHuPH20 (LC-MS-MS, non-compartmental analysis)
Format: in vivo
Details: female, Yorkshire, pig, serum, subcutaneous, […], ZA […], read-out: Zoledronic Acid Serum Concentration
Experimental: A pharmacokinetic study of zoledronic acid (ZA) co-administered with rHuPH20 in female Yorkshire swines was conducted. The primary objective of the study was to determine the bioavailability of zoledronic acid dosed via subcutaneous (SC) co-administration with human recombinant hyaluronidase PH20 (rHuPH20) and to compare the overall exposure to an equivalent IV dose.
Animals in Study Group 1 were dosed with 0.15 mg/kg ZA given via a 20-minute IV infusion. Animals in Study Groups 2 and 3 were dosed subcutaneously (SC) with 0.15 mg/kg ZA without and with rHuPH20, respectively, in different SC delivery volumes.
Following ZA dose administration, serial blood samples were collected via vascular access ports (VAPs) for serum preparation and determination of ZA concentrations. Blood collection times were at 1, 3, 5, 10, 15, 20, 30, 45, and 60 minutes, and at 1.5, 2, 3, 4, 6, 8, 10, 24, 48, and 72 hours post dose. Urine samples were also collected to compare excretion characteristics between IV and SC routes of administration. Collection times for urine were at 15 minutes before dosing (−15 min.), continuously from dose initiation to 2 hours post dose, and at 4, 6, 8, and 24 hours post dose thereafter.
Serum concentration of ZA was determined using a qualified LC-MS-MS assay after derivatization with diazomethane (Zhu, L S et al. (2006) Rapid Commun. Mass Spectrom. 20: 3421-3426; “Qualification Data of An LC-MS/MS Method for the Determination of Zoledronate in Porcine Serum”, MDS Pharma Services Study No. AA43671-01, Report Date 14 Sep. 2007). The assay range was from 2.0 to 400 ng/mL with a lower limit of quantitation (LLOQ) at 2.0 ng/mL. Urine concentration of ZA was determined by a similar well qualified LC-MS-MS method (“Qualification Data of An LC-MS/MS Method for the Determination of Zoledronate in Porcine Urine”, MDS Pharma Services Study No. AA43671-02, Report Date 14 Sep. 2007) with an assay LLOQ at 10 ng/mL.
Pharmacokinetic (PK) analyses of ZA serum concentration versus time data were conducted using WinNonlin v5.1 (Pharsight, Mountain View, Calif.). Non-compartmental analysis was used for derivation of primary and secondary pharmacokinetic (PK) parameters. AUC, Cmax, and Tmax were compared between dose routes, between co-administration with rHuPH20, and with dose of rHuPH20.

Q: Which concentration at 1 h (Time 1 h, pig ID 70, Study Group 2, SC, 10 mL, 1.6 min, rHuPH20 0 U/mL) does the source give for `O=P(O)(O)C(O)(Cn1ccnc1)P(=O)(O)O` [ZA, 1-hydroxy-2-(1H-imidazol-1-yl)ethylidene-1,1-bisphosphonic acid] here?
A: 101 ng/mL

Q: What about the concentration at 2 h (Time 2 h, pig ID 59, Study Group 2, SC, 100 mL, 16 min, rHuPH20 0 U/mL) of the same compound?
A: 22.9 ng/mL

Q: And the concentration at 2 h (Time 2 h, pig ID 60, Study Group 2, SC, 100 mL, 16 min, rHuPH20 0 U/mL)?
A: 75.8 ng/mL

Q: And the concentration at 2 h (Time 2 h, pig ID 62, Study Group 2, SC, 50 mL, 8 min, rHuPH20 0 U/mL)?
A: 28.4 ng/mL

Q: What about the concentration at 2 h (Time 2 h, pig ID 69, Study Group 2, SC, 25 mL, 4 min, rHuPH20 0 U/mL) of the same compound?
A: 31.8 ng/mL

Q: What about the concentration at 2 h (Time 2 h, pig ID 70, Study Group 2, SC, 10 mL, 1.6 min, rHuPH20 0 U/mL) of the same compound?
A: 37.7 ng/mL

Q: What about the concentration at 3 h (Time 3 h, pig ID 59, Study Group 2, SC, 100 mL, 16 min, rHuPH20 0 U/mL) of the same compound?
A: 13.3 ng/mL

Q: What about the concentration at 3 h (Time 3 h, pig ID 60, Study Group 2, SC, 100 mL, 16 min, rHuPH20 0 U/mL) of the same compound?
A: 27.5 ng/mL

Q: And the concentration at 3 h (Time 3 h, pig ID 62, Study Group 2, SC, 50 mL, 8 min, rHuPH20 0 U/mL)?
A: 13.5 ng/mL

Q: And the concentration at 3 h (Time 3 h, pig ID 69, Study Group 2, SC, 25 mL, 4 min, rHuPH20 0 U/mL)?
A: 20.5 ng/mL

Q: And the concentration at 3 h (Time 3 h, pig ID 70, Study Group 2, SC, 10 mL, 1.6 min, rHuPH20 0 U/mL)?
A: 22.2 ng/mL

Q: What about the concentration at 4 h (Time 4 h, pig ID 59, Study Group 2, SC, 100 mL, 16 min, rHuPH20 0 U/mL) of the same compound?
A: 6.48 ng/mL

Q: And the concentration at 4 h (Time 4 h, pig ID 60, Study Group 2, SC, 100 mL, 16 min, rHuPH20 0 U/mL)?
A: 9.03 ng/mL

Q: And the concentration at 4 h (Time 4 h, pig ID 62, Study Group 2, SC, 50 mL, 8 min, rHuPH20 0 U/mL)?
A: 4.74 ng/mL

Q: What about the concentration at 4 h (Time 4 h, pig ID 69, Study Group 2, SC, 25 mL, 4 min, rHuPH20 0 U/mL) of the same compound?
A: 8.11 ng/mL

Q: What about the concentration at 4 h (Time 4 h, pig ID 70, Study Group 2, SC, 10 mL, 1.6 min, rHuPH20 0 U/mL) of the same compound?
A: 9.47 ng/mL

Q: What about the concentration at 6 h (Time 6 h, pig ID 60, Study Group 2, SC, 100 mL, 16 min, rHuPH20 0 U/mL) of the same compound?
A: 3.6 ng/mL

Q: And the concentration at 6 h (Time 6 h, pig ID 62, Study Group 2, SC, 50 mL, 8 min, rHuPH20 0 U/mL)?
A: 2.99 ng/mL

Q: And the concentration at 6 h (Time 6 h, pig ID 69, Study Group 2, SC, 25 mL, 4 min, rHuPH20 0 U/mL)?
A: 2.92 ng/mL

Q: And the concentration at 6 h (Time 6 h, pig ID 70, Study Group 2, SC, 10 mL, 1.6 min, rHuPH20 0 U/mL)?
A: 4.09 ng/mL

Q: And the concentration at 8 h (Time 8 h, pig ID 70, Study Group 2, SC, 10 mL, 1.6 min, rHuPH20 0 U/mL)?
A: 2.07 ng/mL

Q: And the concentration at […] (pig 56, Study Group 3, SC, rHuPH20 10000 U/mL, 25 mL over 4 min, time […])?
A: 29.2 ng/mL

Q: What about the concentration at 2 h (pig 58, Study Group 3, SC, rHuPH20 10000 U/mL, 50 mL over 8 min, time 2 h) of the same compound?
A: 40.1 ng/mL

Q: And the concentration at 3 h (pig 58, Study Group 3, SC, rHuPH20 10000 U/mL, 50 mL over 8 min, time 3 h)?
A: 10.8 ng/mL

Q: What about the concentration at 4 h (pig 58, Study Group 3, SC, rHuPH20 10000 U/mL, 50 mL over 8 min, time 4 h) of the same compound?
A: 8.27 ng/mL

Q: What about the concentration at 6 h (pig 58, Study Group 3, SC, rHuPH20 10000 U/mL, 50 mL over 8 min, time 6 h) of the same compound?
A: 2.65 ng/mL

Q: And the concentration at 0.05 h (pig 64, Study Group 3, SC, rHuPH20 10000 U/mL, 100 mL over 16 min, time 0.05 h)?
A: 57 ng/mL

Q: And the concentration at 0.333 h (pig 64, Study Group 3, SC, rHuPH20 10000 U/mL, 100 mL over 16 min, time 0.333 h)?
A: 253 ng/mL

Q: And the concentration at 0.5 h (pig 64, Study Group 3, SC, rHuPH20 10000 U/mL, 100 mL over 16 min, time 0.5 h)?
A: 197 ng/mL

Q: What about the concentration at 1 h (pig 64, Study Group 3, SC, rHuPH20 10000 U/mL, 100 mL over 16 min, time 1 h) of the same compound?
A: 101 ng/mL

Q: And the concentration at 2 h (pig 64, Study Group 3, SC, rHuPH20 10000 U/mL, 100 mL over 16 min, time 2 h)?
A: 50.9 ng/mL

Q: What about the concentration at 3 h (pig 64, Study Group 3, SC, rHuPH20 10000 U/mL, 100 mL over 16 min, time 3 h) of the same compound?
A: 29.8 ng/mL
